Test results: patent publication US12286452B2, “Amphiphilic aminoglycoside connexin hemichannel inhibitors” (Texas Tech University System, priority 2018, dated 2025)
Like-named read-outs stand apart in the source and are kept apart here.

Key:
[1] = molecular target: T1, human Cx26 HCs (Homo sapiens, UniProt P29033); assay: Cx26-dependent growth complementation assay in E. coli LB2003; format: cell-based
T1 construct: expressed in transfected cells; host or cells: E. coli LB2003 (carrying pREP4), transformed with pQE-Cx26, IPTG-induced
Procedure: These derivatives were prepared by sequential benzylation and methylation followed by reduction of azido groups or hydrogenolysis of the Bn. […] Connexin HC inhibition was conducted using a bacteria-based assay of HC function^39. In this assay, Cx26 HCs are expressed in E. coli LB2003 cells, which lack three major K^+ uptake systems (Kdp, Kup and Trk), and as a result they cannot grow in low-[K^+] media^39-41. However, growth of this E. coli strain in low-[K^+] medium can be rescued by expression of K^+-permeable channels such as connexin HCs^39, 42-43. Under the conditions of the assay (LB2003 cells expressing HCs and grown in low-K^+ medium), inhibition of the HCs reduces or abolishes growth^39, 42-43. This is a simple assay where bacterial growth in multi-well plates can be followed by measuring the absorbance at 600 nm (OD600)^29.
LB2003 cells generously provided by Dr. E. P. Bakker (Osnabruk University, Osnabruk, Germany) were transformed with the plasmid pQE-Cx26 (human Cx26 into pQE60) and pREP4. […] LB2003 cells cannot grow in low-[K^+] media because of insufficient K^+ uptake for growth due to the knockout of three key K^+ transporters (Atrk, Akup, Akdp strain)^2-4. Details and validation of the growth complementation assay have been published recently^2. In brief, competent LB2003 containing the pREP4 plasmid were transformed with pQE-Cx26. These cells were grown overnight in Luria-Bertani medium (BD, Franklin Lakes, NJ, USA) supplemented with 100 mM KCl (to allow growth) and 0.4 mg/mL ampicillin, and then washed four times with NLM (see below), to remove residual K^+ from the Luria-Bertani medium. The washed cells were resuspended in complementation growth medium to an OD600 of 0.2. NLM contained 46 mM Na2HPO4, 23 mM NaH2PO4, 8 mM (NH4)2SO4, 0.4 mM MgSO4, 0.012 mM FeSO4, 1 mM sodium citrate, 44 mM glucose and 0.006 mM thiamine hydrochloride, pH 7.0. KLM had the same composition that NLM except for the equimolar replacement of Na^+ with K^+. For growth complementation we used NLM+4 mM KCl, and Cx26 expression was induced with 0.5 mM IPTG at the time of dilution to OD600=0.2. For the assay, the cells were seeded in 96-well plates and were incubated at 30° C., with shaking at 500 rpm. OD600 was measured after 18-h incubation in a plate reader. The initial OD600=0.2 was subtracted for growth calculations. Data are presented as means±SEM. Statistically significant differences were calculated by the Student t-test for unpaired data. Data were obtained from at least 3 independent experiments, with 3 repeats per experiment.

[2] = molecular target: T2, Cx43 HCs (Homo sapiens, UniProt P17302); assay: Cx43-dependent growth complementation assay in E. coli LB2003; format: cell-based; settings: for Cx43/Cx26 Selectivity: IC50 Cx26/IC50 Cx43
T2 construct: expressed in transfected cells
T2 sequence (P17302 whole entry): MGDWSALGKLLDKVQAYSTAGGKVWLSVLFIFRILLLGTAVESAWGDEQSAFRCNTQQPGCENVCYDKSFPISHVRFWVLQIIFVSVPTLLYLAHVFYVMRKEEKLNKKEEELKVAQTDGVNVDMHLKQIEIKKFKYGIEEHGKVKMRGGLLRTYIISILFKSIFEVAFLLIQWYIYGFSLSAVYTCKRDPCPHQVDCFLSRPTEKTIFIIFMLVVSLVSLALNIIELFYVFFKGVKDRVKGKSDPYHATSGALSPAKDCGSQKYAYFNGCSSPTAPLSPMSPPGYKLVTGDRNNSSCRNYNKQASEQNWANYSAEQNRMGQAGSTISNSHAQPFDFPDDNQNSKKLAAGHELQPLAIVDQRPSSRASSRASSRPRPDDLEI

[3] = 4″,6″-disubstituted AKs, Table 5, read-out: Cx26 IC50
[4] = K46 members, the 20th table, read-out: IC50 (μM) against Cx26
[5] = read-out: IC50, inhibition of Cx26 by kanamycin A and synthetic AGs, first Table 1
[6] = 4″,6″-disubstituted AKs, Table 5, read-out: Cx43 IC50
[7] = K46 members, the 20th table, read-out: IC50 (μM) against Cx43
[8] = the 13th table, read-out: Cx43 IC50
[9] = first Table 2, read-out: IC50, inhibition of Cx26 by synthetic AGs

Compound	IC50 [1, 3] [µM]	IC50 [1, 4] [µM]	IC50 [1, 5] [µM]	IC50 [2, 6] [µM]	IC50 [2, 7] [µM]	also measured
CCCCOCC1OC(OC2C(N)CC(N)C(OC3OC(CN)C(O)C(O)C3O)C2O)C(O)C(N)C1OCCCC (stereo not drawn) [Compound 2]	19 ± 2	19 ± 2.8	19 ± 2.8	–	–	–
CCCCCCOC[C@H]1O[C@H](O[C@@H]2[C@@H](O)[C@H](O[C@H]3O[C@H](CN)[C@@H](O)[C@H](O)[C@H]3O)[C@@H](N)C[C@H]2N)[C@H](O)[C@@H](N)[C@@H]1OCCCCCC [Compound 3]	6.2 ± 1.4	6.2 ± 1.4	6.2 ± 1.4	–	–	–
CCCCCCO[C@H]1[C@H](N)[C@@H](O)[C@@H](O[C@@H]2[C@@H](O)[C@H](O[C@H]3O[C@H](CN)[C@@H](O)[C@H](O)[C@H]3O)[C@@H](N)C[C@H]2N)O[C@@H]1CO [Compound 4]	–	–	–	–	–	IC50 ([1]; first Table 1): 13.5 ± 1.8 µM
CCCCCCCCOC[C@H]1OC(O[C@@H]2C(N)CC(N)C(O[C@H]3OC(CN)[C@@H](O)[C@H](O)C3O)[C@@H]2O)[C@H](O)[C@H](N)C1OCCCCCCCC (stereo partly drawn) [Compound 5]	13.6 ± 0.5	13.6 ± 0.5	13.6 ± 0.5	11.4 ± 4.3	26.6 ± 7.8	Cx26 Imax ([1]; the 13th table): 94 ± 2%; IC50 ([1]; the 13th table, read-out: Cx26 IC50): 13.5 ± 0.5 µM; Cx43/Cx26 Selectivity ([2]; Table 5): 1.19; Cx43 Imax ([2]; the 13th table): 119 ± 8%; IC50 [2, 8]: 11.4 ± 4.3 µM
CCCCCCCCCOC[C@H]1O[C@H](O[C@H]2[C@H](O)[C@@H](O[C@H]3O[C@H](CN)[C@@H](O)[C@H](O)[C@H]3O)[C@H](N)C[C@@H]2N)[C@H](O)[C@@H](N)[C@@H]1OCCCCCCCCC [Compound 6]	18.8 ± 1.3	18.8 ± 1.3	18.8 ± 1.3	–	–	–
COC1C(OC2C(N)CC(N)C(OC3OC(CN)C(OC)C(OC)C3OC)C2OC)OC(COCc2ccccc2)C(OCc2ccccc2)C1N (stereo not drawn) [Compound 8, 5, 2′, 3′, 4′, 2″-Penta-O-methyl-4″,6″-di-O-benzylkanamycin]	–	8.4 ± 1.4	8.4 ± 1.4	–	–	–
COC1C(OC2C(N)CC(N)C(OC3OC(CN)C(OC)C(OC)C3OC)C2OC)OC(CO)C(O)C1N (stereo not drawn) [Compound 9, 5, 2′, 3′, 4′, 2″-Penta-O-methyl-kanamycin]	–	–	–	–	–	inhibition of Cx26 HCs (in words) [1]: lack of inhibitory activity; IC50, inhibition of Cx26 by kanamycin A and synthetic AGs ([1]; first Table 1): No inhibition at 100 μM
COc1ccc(COCC2OC(OC3C(N)CC(N)C(OC4OC(CN)C(O)C(O)C4O)C3O)C(O)C(N)C2OCc2ccc(OC)cc2)cc1 (stereo not drawn) [Compound 10, 4″,6″-Di-O-(4-methoxybenzyl) kanamycin]	–	–	–	4.1 ± 1.5	4.1 ± 1.5	IC50 [1, 9]: 13 ± 0.7 µM; Cx43/Cx26 Selectivity ([2]; Table 5, listed as 2b): 3.17; IC50 ([2]; the 12th table, Hill fit, mean ± SEM, some n = 1, read-out: Cx43 IC50): 4.1 ± 1.5 µM
Cc1ccc(COCC2OC(OC3C(N)CC(N)C(OC4OC(CN)C(O)C(O)C4O)C3O)C(O)C(N)C2OCc2ccc(C)cc2)cc1 (stereo not drawn) [Compound 11, 4″,6″-Di-O-(4-methylbenzyl) kanamycin]	–	–	–	3.1 ± 0.9	3.1 ± 0.9	IC50 [1, 9]: 4.3 ± 0.4 µM; Cx26 Imax ([1]; the 13th table): 102 ± 3%; Cx43/Cx26 Selectivity ([2]; Table 5): 1.39; Cx43 Imax ([2]; the 13th table): 80.4 ± 6%; IC50 [2, 8]: 3.1 ± 0.9 µM
